Patent US20130023563A1, “AMIDINOANILINE DERIVATIVE” (AJINOMOTO CO., INC., priority 2010, published 2013)
Counter-ions that a name gives are not always drawn.

Assays:
[1] = system: human plasma; experiment: Anti-blood coagulant activity, aPTT method, Sysmex CA-1500 (Experimental Example 3-1); format: biochemical; details: negative logarithmic value of the concentration that prolongs aPTT of the control 2 times
Description: Experimental Example 3-1 Measurement of Anti-Blood Coagulant Activity
Examples 1, 8, 9, 11, 13, 16-19 and 22 were measured according to the following method.
(§1) An aPTT measurement method using totally automatic blood coagulation time measuring apparatus Sysmex CA-1500 was used. A 10 mg/ml DDVP solution (DDVP standard product, Wako) (4 μL) and a test compound solution (20 μL) were placed in a sample tube (MS-18, Japan Medical Science), human plasma (standard human plasma for blood coagulation test, GCH-100A, Sysmex) (180 μL) was added and the mixture was used as a test sample. The test sample (50 μL) was incubated at 37° C. for 1 min, data fi APTT (rabbit brain-derived cephalin, DADE Behiring) (50 μL) was added, and the mixture was further incubated at 37° C. for 2 min. To the sample solution was added 0.02M calcium chloride (50 μL), and the time until plasma coagulation was automatically measured.
(§2) As the anti-blood coagulant activity, the negative logarithmic value of the concentration that prolongs aPTT of the control 2 times is shown as paPTT2.

[2] = molecular target: activated factor IIa (thrombin) (Homo sapiens, UniProt P00734); experiment: Measurement of inhibitory activity against activated factor II (chromogenic substrate S-2238); format: biochemical; details: 0.125 U/ml thrombin, 0.1 mM S-2238, absorbance 405 nm; read-out: FIIa (pIC50) (converted)
Description: Experimental Example 2 Measurement of Inhibitory Activity Against Activated Factor II (FIIa, Thrombin)
(§3) Using a 96-well plate (#3396, Costar), 100 mM Tris-HCl buffer (130 μL) containing 0.02% Tween 20, 0.1% PEG6000 and 0.2M NaCl was admixed with 0.125 U/ml activated factor IIa (thrombin) (10 μL) and a test compound (10 μL) for 10 min and a color developing substrate 0.1 mM S-2238 (50 μL) was added. Using a microplate reader Benchmark Plus (BIO-RAD), the reaction rate was measured from the time course changes at absorbance 405 nm. Using the reaction rate of the control as 100%, the negative logarithmic value of the concentration that can suppress the reaction rate of the control by 50% was taken as the pIC50 value.

[3] = molecular target: FXa (Homo sapiens, UniProt P00742); experiment: Measurement of inhibitory activity against activated factor X (chromogenic substrate S-2222); format: biochemical; details: 0.015 U/ml FXa, 0.2 mM S-2222, absorbance 405 nm; read-out: FXa (pIC50) (converted)
Description: Experimental Example 1 Measurement of Inhibitory Activity Against Activated Factor X Activity
as §3, with “mM Tris-HC1” for “mM Tris-HCl”, “with 0.015” for “with 0.125”, “U/ml FXa” for “U/ml activated factor IIa (thrombin)”, “substrate 0.2” for “substrate 0.1”, “mM S-2222” for “mM S-2238”

[4] = system: human plasma; experiment: Anti-blood coagulant activity, aPTT method, Sysmex Cs-2000i (Experimental Example 3-2); format: biochemical; details: negative logarithmic value of the concentration that prolongs aPTT of the control 2 times
Description: Experimental Example 3-2 Measurement of Anti-Blood Coagulant Activity
as §1, with “Cs-2000i” for “CA-1500”, “(8” for “(4”, “(40” for “(20”, “(360” for “(180”
as §2

[5] = Evaluation of stability in liver S9 fraction; format: in vitro ADME; details: human liver S9 fraction 2 mg/mL, 2 μM, 37° C.
Description: Experimental Example 5 Evaluation of Stability in Liver S9 Fraction
Metabolism reaction mixed solution (0.1 mM EDTA-100 mM potassium phosphate buffer (pH 7.4), 2 mg/mL human liver S9 fraction, 0.5 mM oxidized nicotinamide adenine dinucleotide phosphate, 5 mM glucose-6-phosphoric acid, 1 unit/mL glucose-6-phosphate dehydrogenase) was pre-warmed at 37° C. for 5 min. After pre-warming, DMSO solution of the substrate was added such that the concentration of the final drug solution was 2 μM, and the metabolism reaction was started at 37° C. A given amount was sampled at 0 min, 5 min, 10 min and 30 min from the start of the reaction, 0.1 mg/mL dichlorvos-containing acetonitrile was added, and blended to discontinue the reaction. After discontinuation of the reaction, a deproteination treatment was performed by a centrifugation operation at 15000 rpm for 5 min. To the centrifugation supernatant was added 0.3% aqueous formic acid solution, admixed and the mixture was subjected to the measurement by LC/MS/MS. Then, as the residual ratio (%) at 30 min later, the ratio relative to the concentration at 0 min was calculated.

[6] = Evaluation of stability in plasma; format: in vitro ADME; details: human plasma, 37° C., read-out: T½
Description: Experimental Example 4 Evaluation of stability in plasma
To human plasma (495 μL) was added 5 μL from a solution of the test compound prepared to 200 μM (final drug solution concentration 2 μM), and the mixture was incubated at 37° C. At 0 min, 1 min, 2 min, 5 min and 10 min from the addition of the drug solution, 50 μL each was sampled, 0.1 mg/ml DDVP-containing acetonitrile (350 μL) was added, and the reaction was discontinued by blending them. After discontinuation of the reaction, a deproteination treatment was performed by a centrifugation operation at 15000 rpm for 5 min. The centrifugation supernatant (350 μL) was dried to solidness, concentrated, dissolved in aqueous solution (100 μL) of 20% acetonitrile and 0.1% formic acid and the mixture was subjected to the measurement by LC/MS/MS.
The half-life (T1/2) was calculated using initial 3rd-4th time points.

Sequence of FXa (P00742 235-488 limits assumed): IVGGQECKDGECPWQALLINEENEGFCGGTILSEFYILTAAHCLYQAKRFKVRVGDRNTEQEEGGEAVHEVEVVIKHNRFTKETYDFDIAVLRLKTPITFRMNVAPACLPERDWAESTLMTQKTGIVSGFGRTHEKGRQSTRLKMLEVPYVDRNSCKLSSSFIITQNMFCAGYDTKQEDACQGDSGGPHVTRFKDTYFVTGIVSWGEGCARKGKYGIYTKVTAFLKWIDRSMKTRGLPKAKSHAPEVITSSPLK
Sequence of FXa (P00742 41-179 partner limits assumed): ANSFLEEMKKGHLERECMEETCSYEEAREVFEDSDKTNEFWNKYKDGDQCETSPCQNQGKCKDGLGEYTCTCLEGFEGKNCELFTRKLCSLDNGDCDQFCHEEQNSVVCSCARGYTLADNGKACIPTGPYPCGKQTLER

Compound | paPTT2 [1] | IC50 [2] [nM] | IC50 [3] [nM] | paPTT2 [4] | residual ratio (%) of liver S9 fraction 30 min later [5] [%] | half-life at 2 μM [6] [min]
CN(CC(=O)Oc1ccc(C(=N)N2CCCC2)cc1)c1cccc(C(=N)N)c1 [compound of Ex. 1, 4-[imino(pyrrolidin-1-yl)methyl]phenyl N-{3-[amino(imino)methyl]phenyl}-N-methylglycinate 2 trifluoroacetate] | 5.48 | > 100000 | 45.7 | – | – | –
C[C@@H](C(=O)Oc1ccc(C(=N)N2CCCC2)cc1)N(C)c1cccc(C(=N)N)c1 [compound of Ex. 4, 4-[imino(pyrrolidin-1-yl)methyl]phenyl N-{3-[amino(imino)methyl]phenyl}-N-methyl-L-alaninate 2 trifluoroacetate] | – | 83200 | 13.5 | 6.89 | 57 | 4
C[C@H](C(=O)Oc1ccc(C(=N)N2CCCC2)cc1)N(C)c1cccc(C(=N)N)c1 [compound of Ex. 5, 4-[imino(pyrrolidin-1-yl)methyl]phenyl N-{3-[amino(imino)methyl]phenyl}-N-methyl-D-alaninate 2 trifluoroacetate] | – | 38000 | 20 | 6.26 | 64 | 3.7
N=C(N)c1cccc(N2CCC[C@H]2C(=O)Oc2ccc(C(=N)N3CCCC3)cc2)c1 [compound of Ex. 8, 4-[imino(pyrrolidin-1-yl)methyl]phenyl 1-{3-[amino(imino)methyl]phenyl}-L-prolinate 2 trifluoroacetate] | 5.66 | 25700 | 282 | – | – | –
N=C(N)c1cccc(N2CCC[C@@H]2C(=O)Oc2ccc(C(=N)N3CCCC3)cc2)c1 [compound of Ex. 9, 4-[imino(pyrrolidin-1-yl)methyl]phenyl 1-{3-[amino(imino)methyl]phenyl}-D-prolinate 2 trifluoroacetate] | 6.69 | 692 | 20 | – | – | –
CC(=N)N1CCC(Oc2ccc(OC(=O)[C@H]3CCCN3c3cccc(C(=N)N)c3)cc2)CC1 [compound of Ex. 11, 4-[(1-ethanimidoylpiperidin-4-yl)oxy]phenyl 1-{3-[amino(imino)methyl]phenyl}-D-prolinate 2 trifluoroacetate] | 6.25 | 347 | 105 | – | 85 | < 1
N=C(N)c1cccc(N2C[C@H](OCc3ccccc3)C[C@H]2C(=O)Oc2ccc(C(=N)N3CCCC3)cc2)c1 [compound of Ex. 13, 4-[imino(pyrrolidin-1-yl)methyl]phenyl (4R)-1-{3-[amino(imino)methyl]phenyl}-4-(benzyloxy)-L-prolinate 2 trifluoroacetate] | 5.59 | 288 | 339 | – | 86 | 8.2
N=C(N)c1cccc(N2CCCC[C@H]2C(=O)Oc2ccc(C(=N)N3CCCC3)cc2)c1 [compound of Ex. 16, 4-[imino(pyrrolidin-1-yl)methyl]phenyl (2S)-1-{3-[amino(imino)methyl]phenyl}piperidine-2-carboxylate 2 trifluoroacetate] | 6.85 | 70800 | 15.1 | – | – | –
CC(=N)N1CCC(Oc2ccc(OC(=O)[C@@H]3CCCCN3c3cccc(C(=N)N)c3)cc2)CC1 [compound of Ex. 17, 4-[(1-ethanimidoylpiperidin-4-yl)oxy]phenyl (2S)-1-{3-[amino(imino)methyl]phenyl}piperidine-2-carboxylate 2 trifluoroacetate] | 6.33 | 53700 | 40.7 | – | – | –
N=C(N)c1cccc(N2CCCC[C@@H]2C(=O)Oc2ccc(C(=N)N3CCCC3)cc2)c1 [compound of Ex. 18, 4-[imino(pyrrolidin-1-yl)methyl]phenyl (2R)-1-{3-[amino(imino)methyl]phenyl}piperidine-2-carboxylate 2 trifluoroacetate] | 6.64 | 2950 | 4.57 | – | – | –
CC(=N)N1CCC(Oc2ccc(OC(=O)[C@H]3CCCCN3c3cccc(C(=N)N)c3)cc2)CC1 [compound of Ex. 19, 4-[(1-ethanimidoylpiperidin-4-yl)oxy]phenyl (2R)-1-{(3-[amino(imino)methyl]phenyl}piperidine-2-carboxylate 2 trifluoroacetate] | 6.89 | 3390 | 7.76 | – | – | –
N=C(N)c1cccc(N2CCC[C@H]2COC(=O)c2ccc(C(=N)N3CCCC3)cc2)c1 [compound of Ex. 22, ((2S)-1-{3-[amino(imino)methyl]phenyl}pyrrolidin-2-yl)methyl 4-[imino(pyrrolidin-1-yl)methyl]benzoate 2 trifluoroacetate] | 6.03 | > 100000 | 398 | – | 80 | < 1
N=C(N)c1cccc(N2CCC[C@@H]2COC(=O)c2ccc(C(=N)N3CCCC3)cc2)c1 [compound of Ex. 23, ((2R)-1-{3-[amino(imino)methyl]phenyl}pyrrolidin-2-yl)methyl 4-[imino(pyrrolidin-1-yl)methyl]benzoate 2 trifluoroacetate] | – | – | – | – | 76 | 0.2
CC(=N)N1CCC(Oc2ccc(C(=O)OC[C@@H]3CCCN3c3cccc(C(=N)N)c3)cc2)CC1 [compound of Ex. 24, ((2S)-1-{3-[amino(imino)methyl]phenyl}pyrrolidin-2-yl)methyl 4-[(1-ethanimidoylpiperidin-4-yl)oxy]benzoate 2 trifluoroacetate] | – | – | – | – | 92 | 0.5
N=C(N)c1cccc(N2CCCC[C@@H]2C(=O)Oc2ccc(C(=N)N3CCCC3)cc2C(=O)O)c1 [compound of Ex. 52, 2-{[((2R)-1-{3-[amino(imino)methyl]phenyl}piperidin-2-yl)carbonyl]oxy}-5-[imino(pyrrolidin-1-yl)methyl]benzoic acid 2 trifluoroacetate] | – | > 100000 | 18.2 | 6.35 | – | –
